Tests used:
[1] = target: T1, Serine/threonine-protein kinase ULK1 (Homo sapiens, UniProt O75385)
T1 sequence (O75385 whole entry): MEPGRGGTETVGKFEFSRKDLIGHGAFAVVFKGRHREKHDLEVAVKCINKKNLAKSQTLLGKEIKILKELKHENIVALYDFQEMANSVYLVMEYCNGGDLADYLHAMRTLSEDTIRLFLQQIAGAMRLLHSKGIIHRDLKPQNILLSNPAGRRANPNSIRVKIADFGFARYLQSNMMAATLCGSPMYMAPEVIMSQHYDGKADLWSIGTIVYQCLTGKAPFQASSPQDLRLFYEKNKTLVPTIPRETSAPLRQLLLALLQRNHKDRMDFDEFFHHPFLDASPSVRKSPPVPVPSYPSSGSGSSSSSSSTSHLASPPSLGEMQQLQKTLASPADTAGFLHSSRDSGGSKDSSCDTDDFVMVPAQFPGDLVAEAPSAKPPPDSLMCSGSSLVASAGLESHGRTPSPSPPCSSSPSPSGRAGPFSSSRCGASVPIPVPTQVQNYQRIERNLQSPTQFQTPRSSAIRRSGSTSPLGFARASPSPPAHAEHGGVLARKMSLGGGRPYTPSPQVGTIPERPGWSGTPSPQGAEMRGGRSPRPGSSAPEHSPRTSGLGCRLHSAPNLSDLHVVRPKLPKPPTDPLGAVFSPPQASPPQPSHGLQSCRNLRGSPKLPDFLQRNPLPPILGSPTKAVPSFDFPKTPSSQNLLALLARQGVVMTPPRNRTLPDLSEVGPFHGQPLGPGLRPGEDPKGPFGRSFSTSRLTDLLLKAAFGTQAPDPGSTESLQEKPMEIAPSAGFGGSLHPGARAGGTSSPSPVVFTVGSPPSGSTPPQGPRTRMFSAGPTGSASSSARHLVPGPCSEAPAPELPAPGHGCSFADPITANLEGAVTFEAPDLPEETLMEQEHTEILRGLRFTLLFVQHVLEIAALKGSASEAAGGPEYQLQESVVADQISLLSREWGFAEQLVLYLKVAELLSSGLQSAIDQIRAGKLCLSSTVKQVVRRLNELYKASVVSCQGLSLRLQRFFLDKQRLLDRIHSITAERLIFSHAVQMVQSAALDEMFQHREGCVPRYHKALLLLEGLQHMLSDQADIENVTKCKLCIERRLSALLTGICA
Description: Binding affinity to human ULK1 by KINOMEscan assay

[2] = target: T2, Receptor-type tyrosine-protein kinase FLT3 (Homo sapiens, UniProt P36888); experiment: Binding affinity to human FLT3 by KINOMEscan assay
T2 sequence (P36888 whole entry): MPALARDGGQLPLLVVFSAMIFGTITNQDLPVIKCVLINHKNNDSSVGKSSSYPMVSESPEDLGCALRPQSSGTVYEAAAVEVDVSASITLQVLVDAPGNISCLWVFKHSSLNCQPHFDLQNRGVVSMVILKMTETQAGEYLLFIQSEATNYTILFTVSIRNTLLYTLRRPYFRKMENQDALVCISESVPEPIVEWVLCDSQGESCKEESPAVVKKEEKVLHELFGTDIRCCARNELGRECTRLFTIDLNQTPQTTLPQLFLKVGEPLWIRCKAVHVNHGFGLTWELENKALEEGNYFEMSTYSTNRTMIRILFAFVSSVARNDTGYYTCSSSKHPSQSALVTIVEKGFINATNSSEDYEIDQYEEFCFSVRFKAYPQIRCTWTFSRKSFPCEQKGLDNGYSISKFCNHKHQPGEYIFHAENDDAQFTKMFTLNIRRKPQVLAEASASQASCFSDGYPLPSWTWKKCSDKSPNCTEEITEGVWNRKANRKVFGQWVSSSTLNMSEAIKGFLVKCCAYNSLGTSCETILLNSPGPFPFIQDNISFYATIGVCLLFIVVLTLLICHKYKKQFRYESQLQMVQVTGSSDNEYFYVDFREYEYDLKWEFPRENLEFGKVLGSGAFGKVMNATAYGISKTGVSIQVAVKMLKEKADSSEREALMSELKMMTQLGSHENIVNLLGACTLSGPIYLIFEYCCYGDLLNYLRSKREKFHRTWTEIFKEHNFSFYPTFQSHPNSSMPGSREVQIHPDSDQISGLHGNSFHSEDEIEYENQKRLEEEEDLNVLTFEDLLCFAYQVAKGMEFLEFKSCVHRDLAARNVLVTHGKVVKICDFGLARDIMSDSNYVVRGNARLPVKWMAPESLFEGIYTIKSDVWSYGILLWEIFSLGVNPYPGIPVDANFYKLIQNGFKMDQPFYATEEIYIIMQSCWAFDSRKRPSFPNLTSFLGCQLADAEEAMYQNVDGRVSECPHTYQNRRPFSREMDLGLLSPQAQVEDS

Cytochrome P450 3A4 = Cytochrome P450 3A4 (Homo sapiens, UniProt P08684); experiment: Inhibition of CYP3A4 in human liver microsomes assessed as midazolam 1-hydroxylation reaction measured after 30 mins by LC/MS/MS analysis; type: ADME, Microsome
Sequence of Cytochrome P450 3A4 (P08684 whole entry): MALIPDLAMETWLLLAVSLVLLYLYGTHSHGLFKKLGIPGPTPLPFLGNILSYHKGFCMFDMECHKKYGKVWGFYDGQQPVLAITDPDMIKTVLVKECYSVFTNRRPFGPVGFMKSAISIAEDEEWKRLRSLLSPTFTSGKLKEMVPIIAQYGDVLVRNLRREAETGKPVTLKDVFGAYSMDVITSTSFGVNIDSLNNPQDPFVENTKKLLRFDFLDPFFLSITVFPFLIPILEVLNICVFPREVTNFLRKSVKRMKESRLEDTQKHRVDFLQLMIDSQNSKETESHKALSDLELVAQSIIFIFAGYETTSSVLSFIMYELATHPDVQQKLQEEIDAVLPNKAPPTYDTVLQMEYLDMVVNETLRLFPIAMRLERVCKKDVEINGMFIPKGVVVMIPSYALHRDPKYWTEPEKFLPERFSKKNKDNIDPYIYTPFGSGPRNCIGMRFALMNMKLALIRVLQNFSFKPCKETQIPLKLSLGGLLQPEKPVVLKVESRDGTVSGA

[3] = target: Platelet-derived growth factor receptor alpha (Homo sapiens, UniProt P16234)
Sequence of Platelet-derived growth factor receptor alpha (P16234 whole entry): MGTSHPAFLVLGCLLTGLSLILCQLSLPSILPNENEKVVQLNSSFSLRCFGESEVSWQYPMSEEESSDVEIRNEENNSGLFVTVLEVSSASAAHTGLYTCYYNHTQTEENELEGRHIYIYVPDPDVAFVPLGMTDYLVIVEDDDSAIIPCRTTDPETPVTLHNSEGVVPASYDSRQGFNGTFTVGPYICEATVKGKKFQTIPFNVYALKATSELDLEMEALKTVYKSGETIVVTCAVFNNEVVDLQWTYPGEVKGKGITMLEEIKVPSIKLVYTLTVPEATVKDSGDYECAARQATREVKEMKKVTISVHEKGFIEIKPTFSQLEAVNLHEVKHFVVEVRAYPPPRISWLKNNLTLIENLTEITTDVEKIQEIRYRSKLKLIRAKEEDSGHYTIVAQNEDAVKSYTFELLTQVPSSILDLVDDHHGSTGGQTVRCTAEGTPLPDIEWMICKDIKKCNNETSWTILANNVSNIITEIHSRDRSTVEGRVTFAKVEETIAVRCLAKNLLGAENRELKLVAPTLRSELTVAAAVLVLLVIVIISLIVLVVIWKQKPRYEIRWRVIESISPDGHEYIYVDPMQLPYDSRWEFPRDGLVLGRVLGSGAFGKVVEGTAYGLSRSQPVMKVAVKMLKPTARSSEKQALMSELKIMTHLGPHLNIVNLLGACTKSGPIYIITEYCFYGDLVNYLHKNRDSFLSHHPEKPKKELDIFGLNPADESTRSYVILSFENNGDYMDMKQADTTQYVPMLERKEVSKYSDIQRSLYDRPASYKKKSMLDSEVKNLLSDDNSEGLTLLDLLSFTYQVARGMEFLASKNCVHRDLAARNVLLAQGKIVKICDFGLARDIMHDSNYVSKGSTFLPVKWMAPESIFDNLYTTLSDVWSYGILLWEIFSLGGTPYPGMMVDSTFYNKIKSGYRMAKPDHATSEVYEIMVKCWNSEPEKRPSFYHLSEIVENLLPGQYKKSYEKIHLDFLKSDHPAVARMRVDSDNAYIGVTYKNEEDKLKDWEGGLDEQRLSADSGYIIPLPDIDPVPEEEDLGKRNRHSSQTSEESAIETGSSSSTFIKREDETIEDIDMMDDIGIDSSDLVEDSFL
Description: Binding affinity to human PDGFRalpha by KINOMEscan assay

IC50 [1]: 586 nM | IC50 [2]: 85 nM | IC50 (Cytochrome P450 3A4): > 50000 nM | IC50 [3]: 31 nM
SMILES: COc1nc(-c2cc(-c3cnn(C)c3)cnc2N)cc2c1C(=O)N(CC(F)(F)F)CC2
